Measurements: US6075006A, “Soluble tachykinin antagonists, the preparation and use thereof” (Centro Interuniversitario di Ricera Sui Peptidi …, priority 1996, dated 2000)
In brackets after ≈: the same amount, converted by molar mass. Where two headings read alike, the source gives them in different places. Bridge positions count the residues as written; N and C are the ends. Square brackets hold non-standard residues; d marks the D form. Peptide text beside a SMILES is read from it. * marks the point of attachment. βGal = OC[C@H]1O[C@@H](*)[C@H](O)[C@@H](O)[C@H]1O; X1 = OC[C@H]1O[C@@H](N*)[C@H](O)[C@@H](O)[C@H]1O; Dap = NC[C@H](N)C(=O)O

What was measured:
[1] = Water solubility; format: physicochemical; conditions: table of example 2
[2] = water solubility of known insoluble antagonists, stated in the description; cited from earlier work

Solubility [1] | Structure (SMILES) | Solubility [2]
1.980 µg/mL (≈ 2.19 µM) | CC(C)C[C@@H]1NC(=O)[C@@H]2CNC(=O)C[C@H](NC(=O)[C@H](CC(=O)N[C@@H]3O[C@H](CO)[C@H](O)[C@H](O)[C@H]3O)NC1=O)C(=O)N[C@@H](Cc1c[nH]c3ccccc13)C(=O)N[C@@H](Cc1ccccc1)C(=O)N2 [Comparative example 2, cyclo[Asn^1 (β-D-Gal)-Asp^2 -Trp^3 -Phe^4 -Dap^5 -Leu^6]cyclo(2β-5β)] (cyclo(D(X1)DWF[Dap]L); lactam 2-5) | 
1.800 µg/mL (≈ 2.01 µM) | CC(C)C[C@@H]1NC(=O)[C@@H]2CNC(=O)C[C@H](NC(=O)[C@H](CS[C@@H]3O[C@H](CO)[C@H](O)[C@H](O)[C@H]3O)NC1=O)C(=O)N[C@@H](Cc1c[nH]c3ccccc13)C(=O)N[C@@H](Cc1ccccc1)C(=O)N2 [Example 1, cyclo[Cys^1 (β-D-Gal)-Asp^2 -Trp^3 -Phe^4 -Dap^5 -Leu^6]cyclo(2β-5β)] (cyclo(C(βGal)DWF[Dap]L); lactam 2-5) | 
2.020 µg/mL (≈ 2.3 µM) | CC(C)C[C@@H]1NC(=O)[C@@H]2CNC(=O)C[C@H](NC(=O)[C@H](CO[C@@H]3O[C@H](CO)[C@H](O)[C@H](O)[C@H]3O)NC1=O)C(=O)N[C@@H](Cc1c[nH]c3ccccc13)C(=O)N[C@@H](Cc1ccccc1)C(=O)N2 [Comparative example 1, cyclo[Ser^1 (β-D-Gal)-Asp^2 -Trp^3 -Phe^4 -Dap^5 -Leu^6]cyclo(2β-5β)] (cyclo(DWF[Dap]LS(βGal)); lactam 1-4) | 
15 µg/mL (≈ 19.7 µM) | CSCC[C@@H]1NC(=O)[C@H](CC(C)C)NC(=O)[C@@H]2CNC(=O)C[C@H](NC1=O)C(=O)N[C@@H](Cc1c[nH]c3ccccc13)C(=O)N[C@@H](Cc1ccccc1)C(=O)N2 [MEN 10627] (cyclo(DWF[Dap]LM); lactam 1-4) | 15 µg/mL (≈ 19.7 µM)
